Laboratory results reported in the supplement of paper PMC11061612.

Legend:
Assay in all cases: Bliss excess, mean over the matrix (fraction); higher = more synergy
[1] = system: NCI-H2452 (Mesothelioma)
Summary of the method: (§1)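 After 24 hours at 37°C and 5% CO2 in 1536-well plates, cells in DMEM/F12 or RPMI plus 10% FBS received two-drug dose matrices for 72 hours. Viability came from CellTiter-Glo 2.0 luminescence and was scaled as inhibition, anchored at 0 by vehicle wells and at 1 by blank wells. Combination Emax is taken as the second-highest inhibition in the matrix, and Bliss excess as the observed combination effect less EA + EB − EA·EB, with EA and EB the single-agent effects.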

[2] = system: NCI-H2170 (Squamous Cell Lung Carcinoma)
Summary of the method: as §1

[3] = system: IGROV-1 (Ovarian Carcinoma)
Summary of the method: as §1

[4] = system: CAL-85-1 (Breast Carcinoma)
Summary of the method: as §1

[5] = system: GCIY (Gastric Carcinoma)
Summary of the method: as §1

[6] = system: HT-3 (Cervical Carcinoma)
Summary of the method: as §1

[7] = system: BT-474 (Breast Carcinoma)
Summary of the method: as §1

[8] = system: SCC90 (Head and Neck Carcinoma)
Summary of the method: as §1

[9] = system: TK (B-Cell Non-Hodgkin's Lymphoma)
Summary of the method: as §1

[10] = system: RPMI-8402 (T-Lymphoblastic Leukemia)
Summary of the method: as §1

[11] = system: HT-1197 (Bladder Carcinoma)
Summary of the method: as §1

[12] = system: SK-N-DZ (Neuroblastoma)
Summary of the method: as §1

[13] = system: L-363 (Plasma Cell Myeloma)
Summary of the method: as §1

[14] = system: MRK-nu-1 (Breast Carcinoma)
Summary of the method: as §1

[15] = system: SK-MEL-24 (Melanoma)
Summary of the method: as §1

[16] = system: KNS-62 (Squamous Cell Lung Carcinoma)
Summary of the method: as §1

[17] = system: NCI-H1048 (Small Cell Lung Carcinoma)
Summary of the method: as §1

[18] = system: NTERA-2-cl-D1 (Other Solid Carcinomas)
Summary of the method: as §1

[19] = system: SUP-HD1 (Hodgkin's Lymphoma)
Summary of the method: as §1

[20] = system: Daudi (Burkitt's Lymphoma)
Summary of the method: as §1

Row | Structure (SMILES) | Bliss excess [1] | Bliss excess [2] | Bliss excess [3] | Bliss excess [4] | Bliss excess [5] | Bliss excess [6] | Bliss excess [7] | Bliss excess [8] | Bliss excess [9] | Bliss excess [10] | Bliss excess [11] | Bliss excess [12] | Bliss excess [13] | Bliss excess [14] | Bliss excess [15] | Bliss excess [16] | Bliss excess [17] | Bliss excess [18] | Bliss excess [19] | Bliss excess [20]
1 | Cc1cc2ncnn2cc1Nc1ncc2c(n1)n(C1CCOCC1)c(=O)n2C [AZD7648] + O=C(c1cc(Cc2n[nH]c(=O)c3ccccc23)ccc1F)N1CCN(C(=O)C2CC2)CC1 [Olaparib] (first compound max 10 µM, 7x7, partner max 10 µM) | -0.0664 | -0.0052 | -0.0782 | -0.057 | -0.0554 | -0.0518 | -0.0457 | -0.0364 | 0.0001 | -0.0158 | 0.0045 | 0.0102 | 0.0266 | -0.0615 | -0.0533 | -0.0507 | -0.0593 | 0.0101 | 0.0862 | -0.0336
2 | CN(CCO)CC[C@H](CSc1ccccc1)Nc1ccc(S(=O)(=O)NC(=O)c2ccc(N3CCC([C@@H](O)c4ccccc4-c4ccc(Cl)cc4)CC3)cc2)cc1S(=O)(=O)C(F)(F)F [AZD4320] + CCN(CCO)CCCOc1ccc2c(Nc3cc(CC(=O)Nc4cccc(F)c4)[nH]n3)ncnc2c1 [AZD2811] (first compound max 1 µM, 7x7, partner max 1 µM) | -0.0111 | -0.051 | 0.0206 | 0.0218 | -0.0067 | – | 0.0081 | 0.134 | 0.129 | 0.0501 | -0.016 | 0.0087 | -0.015 | 0.0505 | -0.0647 | -0.0204 | 0.139 | 0.159 | 0.0476 | 0.0078
3 | C[C@@H](c1ccc2nccn2c1)n1nnc2ncc(-c3cnn(C)c3)nc21 [Savolitinib] + CC1(C)CCC(CN2CCN(c3ccc(C(=O)NS(=O)(=O)c4ccc(NCC5CCOCC5)c([N+](=O)[O-])c4)c(Oc4cnc5[nH]ccc5c4)c3)CC2)=C(c2ccc(Cl)cc2)C1 [Venetoclax] (first compound max 1 µM, 7x7, partner max 1 µM) | -0.0714 | -0.0336 | -0.04 | -0.0468 | -0.0732 | -0.0486 | -0.0682 | -0.0192 | -0.0258 | -0.0218 | -0.0534 | -0.0158 | -0.0159 | 0.0851 | -0.0805 | -0.0616 | -0.0419 | -0.0678 | 0.034 | -0.0988
4 | C[C@@H](c1ccc2nccn2c1)n1nnc2ncc(-c3cnn(C)c3)nc21 [Savolitinib] + CN(CC[C@H](CSC1=CC=CC=C1)NC2=C(C=C(C=C2)S(=O)(=O)NC(=O)C3=CC=C(C=C3)N4CCC(CC4)[C@H](C5=CC=CC=C5C6=CC=C(C=C6)Cl)O)S(=O)(=O)C(F)(F)F)CCO [AZD4320] (first compound max 1 µM, 7x7, partner max 1 µM) | – | -0.0589 | -0.0735 | – | – | -0.0238 | -0.0534 | 0.0447 | -0.08 | – | -0.0354 | -0.0035 | – | – | – | – | 0.0144 | – | 0.0355 | -0.0219
5 | Cc1cc2ncnn2cc1Nc1ncc2c(n1)n(C1CCOCC1)c(=O)n2C [AZD7648] + COc1cc([C@@H]2c3cc4c(cc3[C@@H](O[C@@H]3O[C@@H]5CO[C@@H](C)O[C@H]5[C@H](O)[C@H]3O)[C@H]3COC(=O)[C@H]23)OCO4)cc(OC)c1O [Etoposide] (first compound max 10 µM, 7x7, partner max 10 µM) | 0.0449 | – | – | 0.0483 | 0.125 | – | – | – | – | 0.0847 | – | – | 0.0582 | 0.0829 | 0.0438 | 0.056 | – | 0.137 | – | –
6 | C=CCn1c(=O)c2cnc(Nc3ccc(N4CCN(C)CC4)cc3)nc2n1-c1cccc(C(C)(C)O)n1 [AZD1775] + C1CN(CCC1(C(=O)N[C@@H](CCO)C2=CC=C(C=C2)Cl)N)C3=NC=NC4=C3C=CN4 [Capivasertib] (first compound max 3 µM, partner max 3 µM) | -0.116 | -0.0454 | -0.0435 | -0.0528 | -0.0277 | -0.0073 | 0.0145 | -0.0309 | 0.0183 | 0.0084 | -0.0488 | -0.0116 | -0.0379 | -0.0885 | 0.0047 | -0.0128 | -0.0301 | – | -0.0378 | 0.0313
7 | N#Cc1cnc(Nc2cc(NC[C@H]3CNCCO3)c(C(F)(F)F)cn2)cn1 [SRA737] + CCc1c2c(nc3ccc(O)cc13)-c1cc3c(c(=O)n1C2)COC(=O)[C@]3(O)CC [SN-38] (first compound max 10 µM, 7x7, partner max 0.3 µM) | 0.0683 | – | – | -0.0479 | -0.0331 | – | – | – | – | -0.0209 | – | – | 0.0599 | -0.128 | -0.0221 | -0.0387 | – | -0.0004 | – | –
